# US7652070B2, “Treatment method for MMP-implicated pathologies” (priority 2007, dated 2010)
# Legend:
# [1] = system: cystinosis patients; settings: cited from earlier work
# [2] = system: pre-renal transplant cystinotics; settings: cited from earlier work
# [3] = molecular target: MMP-9 (Homo sapiens, UniProt P14780); test: Breakdown/inhibition of MMP-9 by cysteamine analyzed by zymography; format: biochemical; settings: Michaelis-Mentin kinetics, FIG. 1
# From the text: FIG. 1 is a table illustrating inhibition of MMP-9 by cysteamine.
# FIG. 1 illustrates the result of a laboratory test showing the breakdown of MMP-9 as analyzed by zymography. Because enzymes are structure specific, it can be inferred that there is inhibition of MMP-9 by cysteamine. It is believed that cysteamine inactivates MMP by breaking an important sulfur bond, causing the enzyme to unfold.
# MMP-9, sequence (P14780 94-707): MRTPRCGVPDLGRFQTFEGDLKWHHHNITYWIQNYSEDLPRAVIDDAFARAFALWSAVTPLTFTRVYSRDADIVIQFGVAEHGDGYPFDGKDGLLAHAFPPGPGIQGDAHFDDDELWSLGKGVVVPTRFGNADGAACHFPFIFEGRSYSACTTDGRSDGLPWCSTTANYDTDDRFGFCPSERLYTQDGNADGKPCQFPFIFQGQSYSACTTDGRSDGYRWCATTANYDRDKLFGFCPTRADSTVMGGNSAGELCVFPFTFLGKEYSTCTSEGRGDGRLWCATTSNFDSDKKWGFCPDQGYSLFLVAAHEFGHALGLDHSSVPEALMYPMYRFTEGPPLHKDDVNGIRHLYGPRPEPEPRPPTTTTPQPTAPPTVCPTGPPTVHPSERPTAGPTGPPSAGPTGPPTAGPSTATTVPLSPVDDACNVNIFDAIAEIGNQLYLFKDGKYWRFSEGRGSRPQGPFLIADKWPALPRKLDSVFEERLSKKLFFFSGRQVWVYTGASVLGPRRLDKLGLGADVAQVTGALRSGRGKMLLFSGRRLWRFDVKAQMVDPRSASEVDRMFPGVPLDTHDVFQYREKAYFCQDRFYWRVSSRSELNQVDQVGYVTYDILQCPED
structure (smiles),measurement,setting,value
Cl.NCCS [Cysteamine {HCl}],efficacy of eye drop concentration,"[1]; concentration 0.1%, cystinosis patients",effective
same,toxicity of eye drops,"[1]; eye drop 0.5%, preserved with benzalkonium, up to 12 times per day, slight burning sensation possible",no toxicity has not been observed
"NCCS [cysteamine, Cysteamine (HSCH2CH2NH2)]",effect of cysteamine therapy on growth and renal function,[2],improved growth and stabilized renal function
same,toxicity of cysteamine therapy,[2],without substantial toxicity
same,Ki,[3],530 ± 140 µM
